In US20250082650A1, “COMBINED USE OF MULTIKINASE INHIBITOR” (TRANSTHERA SCIENCES (NANJING), INC., priority 2021, published 2025):

Tests used:
[1] = system: mouse colon cancer cell CT26.wt subcutaneous homograft tumor; experiment: In vivo pharmacodynamic study, CT26.wt subcutaneous homograft tumor model, combination with PD-1 antibody; conditions: CT26.wt tumor-bearing Balb/c mice, day 13; Compound 1 15 mg/kg PO QD; PD-1 antibody 10 mg/kg IP BIW; 1-14 days
Excerpt: Example 5: In Vivo Pharmacodynamic Study of the Compound of the Present Invention Combined with PD-1 Antibody on Mouse Colon Cancer Cell CT26.Wt Subcutaneous Homograft Tumor Model
Test sample: compound 1 of the present invention, having a structure shown above.
CT26.wt cells: mouse colon cancer cells from the Cell Bank of the Chinese Academy of Sciences.
Balb/c mice, 6- to 8-week-old, female, from Beijing Vital River Laboratory Animal Technology Co., Ltd.
PD-1 antibody: InVivoMAb anti-mouse PD-1, clone number: RMP1-14, company: BioXcell, Cat. No. BE0146.
CT26.wt cells were cultured in monolayer in vitro under the condition of an RPMI1640 medium supplemented with 10% heat-inactivated fetal bovine serum and 1% penicillin-streptomycin double antibody, and the culture was carried out at 37° C. and 5% CO2. […] When the cells were in the exponential growth phase, the cells were harvested, counted, and inoculated.
0.1 mL of a cell suspension containing about 1×10^6 CT26.wt cells (cells suspended in serum-free basal RPMI1640 medium) was inoculated subcutaneously into the left back skin of female Balb/c mice. […] Grouping method: Animals were weighed before administration and tumor volumes were measured. […]
Animals were monitored daily for health status and mortality, body weight and tumor volume were measured twice a week, and samples were collected after the last administration. […]

[2] = system: IDO-1 expression in Hela cells; experiment: Regulation of IDO protein levels in Hela cells (western blot); assay type: cell-based; conditions: interferon 50 ng/mL, co-incubation 16 h, 10-10000 nM, FIG. 2
Excerpt: Example 6: Study on Regulation of IDO Protein Levels in Hela Cells by the Compound of the Present Invention
Cells: Hela Cells from Cobioer.
Reagents: DMEM medium, fetal bovine serum, penicillin, streptomycin, […] from SinoBiological, protein loading buffer, RIPA protein lysis buffer, protease inhibitor, BCA protein content assay kit, trihydroxymethyl aminomethane, sodium dodecyl sulfate, ammonium persulfate, 30% Acry-Bis solution, phosphate buffer, Tween 20, bovine serum albumin, GAPDH antibody (rabbit) from CST company, IDO-1 antibody (rabbit) from CST, anti-rabbit secondary antibody from CST, and protein marker.
Cell culture and plating: Hela cells were cultured in a DMEM medium containing 10% fetal bovine serum and 1% penicillin-streptomycin double antibody and incubated in a water-jacketed incubator at 37° C. and 5% CO2. Subculture treatment was carried out in a 1:4 ratio. When the cells were in the exponential growth phase, the cells were harvested, counted, plated at a density of 5×10^5 cells/well in a 6-well cell culture plate, and cultured overnight. […]
Protein content assay and sample configuration: Protein content in each well was measured by using a BCA kit and Nanodrop, and according to the detection result, a sample loading buffer and a lysis buffer were added to adjust to a system of […] of protein/10 μL for sample loading of Western Blot detection. […]

[3] = system: mouse B cell lymphoma A20 subcutaneous homograft tumor; experiment: In vivo pharmacodynamic study, A20 subcutaneous homograft tumor model, combination with PD-L1 antibody; conditions: A20 tumor-bearing Balb/c mice; Compound 1 7.5 mg/kg oral Qd; PD-L1 antibody 10 mg/kg IP Q3d; 19 days
Description: Example 7: In Vivo Pharmacodynamic Study of the Compound of the Present Invention Combined with PD-L1 on Mouse B Cell Lymphoma A20 Subcutaneous Homograft Tumor Model
A20 cells: mouse B cell lymphoma cells from ATCC.
Balb/c mice, 6- to 8-week-old, female, from Zhejiang Vital River Laboratory Animal Technology Co., Ltd.
(§1) PD-L1 antibody: InVivoMAb anti-mouse PD-L1 (B7-H1), clone number: 10F.9G2 (IgG2b), company: BioXcell, Cat. No. BE0101.
A20 cells were cultured in monolayer in vitro. When the cells were in the exponential growth phase, the cells were harvested, counted, and inoculated.
(§2) 0.04 mL of a cell suspension containing about 6×10^5 A20 cells was inoculated subcutaneously into the back skin of female Balb/c mice. The mice were grouped for administration when the average volume of tumors reached approximately 60 mm^3. Grouping method: Animals were weighed before administration and tumor volumes were measured. Grouping was designed in blocks according to the tumor volume, with 8 mice per group.
Administration was carried out as in Table 4 below.
(§3) Animals were monitored daily for health status and mortality, body weight and tumor volume were measured twice a week, and samples were collected after the last administration. The therapeutic effect of tumor volume was evaluated by TGI %, and the evaluation was conducted as shown in Example 5.

[4] = system: mouse colon cancer MC38 subcutaneous homograft tumor; experiment: In vivo pharmacodynamic study, MC38 subcutaneous homograft tumor model, combination with PD-L1 antibody; conditions: MC38 tumor-bearing C57BL/6 mice; Compound 1 7.5 mg/kg oral Qd; PD-L1 antibody 5 mg/kg IP Q3d; 25 days
Description: Example 8: In Vivo Pharmacodynamic Study of the Compound of the Present Invention Combined with PD-L1 on Mouse Colon Cancer MC38 Subcutaneous Homograft Tumor Model
MC38 cells: mouse colon cancer cells from ATCC.
(§4) C57BL/6 mice, 6- to 8-week-old, female, from Shanghai Slac Laboratory Animal Co., Ltd.
as §1
MC38 cells were cultured in monolayer in vitro. When the cells were in the exponential growth phase, the cells were harvested, counted, and inoculated.
as §2, with “3×10^5 MC38” for “6×10^5 A20”, “C57BL/6” for “Balb/c”
Administration was carried out as in Table 6 below.
as §3

[5] = system: mouse pancreatic cancer Pan02 subcutaneous homograft tumor; experiment: In vivo pharmacodynamic study, Pan02 subcutaneous homograft tumor model, combination with PD-L1 antibody; conditions: Pan02 tumor-bearing C57BL/6 mice; Compound 1 7.5 mg/kg oral Qd; PD-L1 antibody 10 mg/kg IP Q3d; 25 days
Description: Example 9: In Vivo Pharmacodynamic Study of the Compound of the Present Invention Combined with PD-L1 on Mouse Pancreatic Cancer Pan02 Subcutaneous Homograft Tumor Model
Pan02 cells: mouse pancreatic cancer cells from ATCC.
as §4
PD-L1 antibody: InVivoMAb anti-mouse PD-L1 (B7-H1), clone number: 10F.9G2 (IgG2b), company: BioXcell, Cat. No. BE0101
Pan02 cells were cultured in monolayer in vitro. When the cells were in the exponential growth phase, the cells were harvested, counted, and inoculated.
as §2, with “0.06” for “0.04”, “1×10^6 Pan02” for “6×10^5 A20”, “C57BL/6” for “Balb/c”, “7” for “8”
Administration was carried out as in Table 8 below.
as §3

endometrial cancer = conditions: PD-1 antibody combined with E7080, endometrial cancer, ASCO 2017 clinical data; cited from earlier work

Cc1[nH]nc2c1N=C(c1ccccc1Cl)c1cnc(N3CCOCC3)cc1N2 [Compound 1, 4-(5-(2-chlorophenyl)-3-methyl-2,10-dihydropyrazolo[4,3-b]pyrido[4,3-e][1,4]diazepin-8-yl)morpholine]
TGI (tumor volume inhibition rate) [1]: 48%
Tumor volume [1]: 1150 ± 142 mm^3
Expression of IDO-1 in Hela cells [2]: could effectively reduce the expression of IDO-1
TGI [3]: 26%
Tumor volume [3]: 519 mm^3
TGI [4]: 50%
Tumor volume [4]: 554 mm^3
TGI [5]: 71%
Tumor volume [5]: 921 mm^3

COc1cc2nccc(Oc3ccc(NC(=O)NC4CC4)c(Cl)c3)c2cc1C(N)=O [Compound E7080]
Control rate (endometrial cancer): 96%
